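1) Cells in 96-well plates. 2) Compound, 48 h, 5 concentrations. 3) Linear interpolation between surrounding doses. 4) Unreached endpoint = highest concentration. GI50 marks 50% less growth. TGI denotes the concentration required for complete inhibition of growth.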
What was measured:
Assay in all cases: NCI anticancer screen, dose series, 48 h
CAKI-1 renal = test system: CAKI-1 renal
BT-549 breast = test system: BT-549 breast
786-0 renal = test system: 786-0 renal
MALME-3M melanoma = test system: MALME-3M melanoma
UACC-257 melanoma = test system: UACC-257 melanoma
HL-60(TB) leukemia = test system: HL-60(TB) leukemia
SK-MEL-2 melanoma = test system: SK-MEL-2 melanoma
DU-145 prostate = test system: DU-145 prostate
MCF7 breast = test system: MCF7 breast
U251 CNS = test system: U251 CNS
SF-268 CNS = test system: SF-268 CNS
M14 melanoma = test system: M14 melanoma
NCI-H460 lung = test system: NCI-H460 lung
PC-3 prostate = test system: PC-3 prostate
KM12 colon = test system: KM12 colon
RXF 393 renal = test system: RXF 393 renal
ACHN renal = test system: ACHN renal
HS 578T breast = test system: HS 578T breast
COLO 205 colon = test system: COLO 205 colon
IGROV1 ovarian = test system: IGROV1 ovarian
OVCAR-4 ovarian = test system: OVCAR-4 ovarian
MDA-MB-435 = test system: MDA-MB-435
OVCAR-3 ovarian = test system: OVCAR-3 ovarian
LOX IMVI melanoma = test system: LOX IMVI melanoma
MDA-MB-231 breast = test system: MDA-MB-231 breast
SNB-19 CNS = test system: SNB-19 CNS
SK-MEL-5 melanoma = test system: SK-MEL-5 melanoma
OVCAR-8 ovarian = test system: OVCAR-8 ovarian
A549 NSCLC = test system: A549 NSCLC
HCT-15 colon = test system: HCT-15 colon
MOLT-4 leukemia = test system: MOLT-4 leukemia
UACC-62 melanoma = test system: UACC-62 melanoma
A498 renal = test system: A498 renal
HCT-116 colon = test system: HCT-116 colon
T-47D breast = test system: T-47D breast
SF-539 CNS = test system: SF-539 CNS
HOP-92 NSCLC = test system: HOP-92 NSCLC
HOP-62 NSCLC = test system: HOP-62 NSCLC
CCRF-CEM leukemia = test system: CCRF-CEM leukemia
UO-31 renal = test system: UO-31 renal
HT29 colon = test system: HT29 colon
NCI-H522 lung = test system: NCI-H522 lung
SK-MEL-28 melanoma = test system: SK-MEL-28 melanoma
TK-10 renal = test system: TK-10 renal
NCI/ADR-RES ovarian = test system: NCI/ADR-RES ovarian
RPMI-8226 leukemia = test system: RPMI-8226 leukemia
K-562 leukemia = test system: K-562 leukemia
SR leukemia = test system: SR leukemia
SNB-75 CNS = test system: SNB-75 CNS
EKVX NSCLC = test system: EKVX NSCLC
SF-295 CNS = test system: SF-295 CNS
SN12C renal = test system: SN12C renal
NCI-H226 lung = test system: NCI-H226 lung
OVCAR-5 ovarian = test system: OVCAR-5 ovarian
NCI-H23 lung = test system: NCI-H23 lung
SK-OV-3 ovarian = test system: SK-OV-3 ovarian
MDA-MB-468 breast = test system: MDA-MB-468 breast

## CCOc1ccc(/C=N/NC(=O)Cn2nc(Cc3ccc([N+](=O)[O-])cc3)c3onc(C)c3c2=O)cc1
CAKI-1 renal
  GI50: 3.08 µM
  TGI: 12.3 µM
BT-549 breast
  GI50: 20.3 µM
  TGI: > 100 µM
786-0 renal
  GI50: 2.47 µM
  TGI: 6.64 µM
MALME-3M melanoma
  GI50: 6.71 µM
  TGI: 44.9 µM
UACC-257 melanoma
  GI50: 69.9 µM
  TGI: > 100 µM
HL-60(TB) leukemia
  GI50: > 100 µM
  TGI: > 100 µM
SK-MEL-2 melanoma
  GI50: 13.8 µM
  TGI: 36.9 µM
DU-145 prostate
  GI50: 11.2 µM
  TGI: > 100 µM
MCF7 breast
  GI50: > 100 µM
  TGI: > 100 µM
U251 CNS
  GI50: 2.3 µM
  TGI: 7.06 µM
SF-268 CNS
  GI50: 5.75 µM
  TGI: 68.5 µM
M14 melanoma
  GI50: 28.2 µM
  TGI: > 100 µM
NCI-H460 lung
  GI50: 4.37 µM
  TGI: > 100 µM
PC-3 prostate
  GI50: 6.35 µM
  TGI: > 100 µM
KM12 colon
  GI50: > 100 µM
  TGI: > 100 µM
RXF 393 renal
  GI50: 2.57 µM
  TGI: 7.35 µM
ACHN renal
  GI50: 3.33 µM
  TGI: 11 µM
HS 578T breast
  GI50: 2.84 µM
  TGI: 8.23 µM
COLO 205 colon
  GI50: > 100 µM
  TGI: > 100 µM
IGROV1 ovarian
  GI50: 27.6 µM
  TGI: > 100 µM
OVCAR-4 ovarian
  GI50: 3.26 µM
  TGI: > 100 µM
MDA-MB-435
  GI50: > 100 µM
  TGI: > 100 µM
OVCAR-3 ovarian
  GI50: 9.59 µM
  TGI: > 100 µM
LOX IMVI melanoma
  GI50: 5.34 µM
  TGI: > 100 µM
MDA-MB-231 breast
  GI50: 2.3 µM
  TGI: 6.44 µM
SNB-19 CNS
  GI50: 3.41 µM
  TGI: 14.1 µM
SK-MEL-5 melanoma
  GI50: 6.85 µM
  TGI: > 100 µM
OVCAR-8 ovarian
  GI50: 10.1 µM
  TGI: > 100 µM
A549 NSCLC
  GI50: 4.19 µM
  TGI: > 100 µM
HCT-15 colon
  GI50: > 100 µM
  TGI: > 100 µM
MOLT-4 leukemia
  GI50: > 100 µM
  TGI: > 100 µM
UACC-62 melanoma
  GI50: 12.9 µM
  TGI: 93.9 µM
A498 renal
  GI50: 4.88 µM
  TGI: 21 µM
HCT-116 colon
  GI50: 3.21 µM
  TGI: > 100 µM
T-47D breast
  GI50: 2.57 µM
  TGI: > 100 µM
SF-539 CNS
  GI50: 3.1 µM
  TGI: 10.1 µM
HOP-92 NSCLC
  GI50: 2.41 µM
  TGI: 8.23 µM
HOP-62 NSCLC
  GI50: 2.55 µM
  TGI: 6.99 µM
CCRF-CEM leukemia
  GI50: > 100 µM
  TGI: > 100 µM
UO-31 renal
  GI50: 3.45 µM
  TGI: > 100 µM
HT29 colon
  GI50: > 100 µM
  TGI: > 100 µM
NCI-H522 lung
  GI50: 3.26 µM
  TGI: 32.5 µM
SK-MEL-28 melanoma
  GI50: 6.14 µM
  TGI: > 100 µM
TK-10 renal
  GI50: 2.41 µM
  TGI: 6.62 µM
NCI/ADR-RES ovarian
  GI50: 6.53 µM
  TGI: > 100 µM
RPMI-8226 leukemia
  GI50: > 100 µM
  TGI: > 100 µM
K-562 leukemia
  GI50: > 100 µM
  TGI: > 100 µM
SR leukemia
  GI50: > 100 µM
  TGI: > 100 µM
SNB-75 CNS
  GI50: 1.6 µM
  TGI: 7.67 µM
EKVX NSCLC
  GI50: > 100 µM
  TGI: > 100 µM
SF-295 CNS
  GI50: 3.26 µM
  TGI: 10.8 µM
SN12C renal
  GI50: > 100 µM
  TGI: > 100 µM
NCI-H226 lung
  GI50: 2.43 µM
  TGI: 6.99 µM
OVCAR-5 ovarian
  GI50: > 100 µM
  TGI: > 100 µM
NCI-H23 lung
  GI50: 7.06 µM
  TGI: 35.1 µM
SK-OV-3 ovarian
  GI50: 8.24 µM
  TGI: 27.2 µM
MDA-MB-468 breast
  GI50: 3.35 µM
  TGI: 20 µM
